This is an account of results in patent publication US20030013660A1, “Dioxolane analogs for improved inter-cellular delivery” (Shire BioChem Inc., priority 2000, published 2003).

The target in one series is T1, hCNT1 (Homo sapiens, UniProt O00337).
T1 construct: expressed in transfected cells; host or cells: HeLa cells, transient transfection with pcDNA3-hCNT1
T1 sequence (O00337 1-649): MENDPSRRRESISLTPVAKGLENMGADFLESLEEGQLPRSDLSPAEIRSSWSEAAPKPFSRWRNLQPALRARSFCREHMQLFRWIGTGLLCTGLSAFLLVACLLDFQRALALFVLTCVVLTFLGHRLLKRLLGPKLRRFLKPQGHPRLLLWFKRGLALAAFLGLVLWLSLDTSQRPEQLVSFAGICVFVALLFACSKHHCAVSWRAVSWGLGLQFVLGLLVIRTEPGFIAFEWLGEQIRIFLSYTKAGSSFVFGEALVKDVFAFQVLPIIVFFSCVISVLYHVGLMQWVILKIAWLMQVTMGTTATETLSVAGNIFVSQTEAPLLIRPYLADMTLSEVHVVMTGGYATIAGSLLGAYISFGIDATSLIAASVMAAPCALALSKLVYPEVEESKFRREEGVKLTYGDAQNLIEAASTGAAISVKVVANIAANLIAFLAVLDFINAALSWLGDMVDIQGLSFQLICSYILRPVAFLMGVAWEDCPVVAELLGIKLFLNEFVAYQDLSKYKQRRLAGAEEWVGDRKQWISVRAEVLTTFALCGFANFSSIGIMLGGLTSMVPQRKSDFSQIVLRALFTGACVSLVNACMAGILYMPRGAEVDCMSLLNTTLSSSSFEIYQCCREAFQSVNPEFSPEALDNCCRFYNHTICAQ
Nature of the series: Uptake by recombinant transporter in transiently transfected HeLa cells. Format: in vitro ADME. Particulars: 10 μM, 100 μM dilazep. As to the method:
(§1) Transport assays were conducted in the presence of the equilibrative transport inhibitor, 100 μM dilazep and either in the presence ( ? ) or absence (▴) of […].sodium, and compared to HeLa cells transiently transfected with the empty vector control plasmic (▾).
(§2) Cancer Res., 56: 4187-4191.
(§3) Expression plasmids encoding recombinant hCNT1 and hCNT2 are prepared using conventional methods. […] The expression vectors are separately introduced into actively proliferating HeLa cells, following conventional methods. See, e.g., Fang et al (1996).
(§4) Recombinant hCNT1 and hCNT2 were separately introduced into HeLa cells by transient transfection of pcDNA3 plasmids containing the coding sequences of the relevant nucleoside transporter protein. […] Uptake of 10 μM [^3H]troxacitabine was not mediated either by hCNT1 or by hCNT2. Troxacitabine uptake by cib-activity (hCNT3) in differentiated HL-60 cells: […]

A further series addresses T2, hCNT2 (Homo sapiens, UniProt O43868).
T2 construct: expressed in transfected cells; host or cells: HeLa cells, transient transfection with pcDNA3-hCNT2
T2 sequence (O43868 1-658): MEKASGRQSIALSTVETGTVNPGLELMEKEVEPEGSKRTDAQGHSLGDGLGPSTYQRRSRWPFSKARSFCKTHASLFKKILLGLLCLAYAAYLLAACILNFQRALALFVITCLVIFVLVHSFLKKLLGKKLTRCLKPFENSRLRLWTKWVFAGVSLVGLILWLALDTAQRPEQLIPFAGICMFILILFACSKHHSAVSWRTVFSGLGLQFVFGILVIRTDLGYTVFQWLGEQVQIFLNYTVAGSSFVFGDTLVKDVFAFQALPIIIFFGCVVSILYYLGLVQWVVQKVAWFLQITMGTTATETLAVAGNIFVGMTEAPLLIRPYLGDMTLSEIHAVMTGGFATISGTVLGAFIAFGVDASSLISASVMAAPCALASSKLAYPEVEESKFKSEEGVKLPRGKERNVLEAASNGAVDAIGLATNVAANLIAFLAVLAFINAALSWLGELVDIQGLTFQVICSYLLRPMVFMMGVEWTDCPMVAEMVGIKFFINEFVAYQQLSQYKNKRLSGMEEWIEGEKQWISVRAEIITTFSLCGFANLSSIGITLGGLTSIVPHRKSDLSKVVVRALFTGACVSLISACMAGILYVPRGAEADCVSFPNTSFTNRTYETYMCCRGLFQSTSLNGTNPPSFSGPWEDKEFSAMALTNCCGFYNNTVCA
Described as above. Format: in vitro ADME. As to conditions: 10 μM, 100 μM dilazep. As to the method: as §1, §2, §3, §4

For the compound `Nc1ccn([C@@H]2CO[C@H](CO)O2)c(=O)n1` [Troxacitabine, troxacitabine], on hCNT1, the “uptake mediated by hCNT1” value was “not mediated”. The “uptake mediated by hCNT2” value on hCNT2 is “not mediated”.
